In this assay the test system is A. flavus 3357. As to the kind of experiment: Heat-sensitizing antimicrobial bioassay (MFC) in A. flavus 3357. The conditions noted are these: for MFC: read-out: minimum fungicidal concentration (MFC; >99.999% fungal death). It is filed as cell-based, Aspergillus flavus. As to the method:
Antimicrobial bioassay: The heat-sensitizing effect of twenty-eight compounds (phenolic derivatives, alkyl gallates, other food additives) (0.025, 0.050, 0.075, 0.100, 0.200, 0.300, 0.400, 0.500, 0.600 or 0.700 mM) and six drugs/fungicides (1, 2, 4, 8, 16, 32, 64 ppm) (Table 2) were examined using A. flavus 3357. Two hundred μL of fungal spores (1.5×10^5 to 2.1×10^5 CFU) dispersed in PBS was transferred into individual microfuge tube (1.5 mL vol.), where (1) “control” tube contained DMSO only, while (2) “treatment” tube contained test chemical/drug at respective concentration. The tubes were then treated with mild heat (57.5° C.) or maintained at room temperature (RT; 22.0° C.) for 90 seconds. After treatments, entire volume (200 μL) from each microfuge tube was spread onto fresh recovery PDA, and plates were incubated at respective temperatures. Fungal growth/survival was monitored after 48 hrs of incubation.
As described in A. flavus 3357 test (see above), microfuge tubes were treated with mild heat (57.5° C.) or maintained at RT (22.0° C.) (90 seconds). After heat treatments, entire volume (200 μL) from each microfuge tube was spread onto fresh recovery LB agar (for bacteria) or PDA (for fungi), and plates were incubated at the optimum temperature for respective microorganisms (i.e., 35° C. for Aspergillus, 37° C. for E. coli, 28° C. for Penicillium/A. tumefaciens, respectively). The growth/survival of test microorganisms were monitored after 48 to 72 hrs of incubation.
Determination of optimum temperature and time duration for screening heat sensitizers in A. flavus 3357: For the determination of the optimum temperature and time points for screening heat sensitizers, fungal (A. flavus 3357) survivability was tested by exposing fungal spores (1.5×10^5 to 2.1×10^5 CFU) to different temperatures (50, 55, 57.5, 60, 65° C.) and time points (0.5, 1.0, 1.5, 2.0, 2.5, 3.0, 3.5, 4.0, 4.5, 5.0 min).

[1] abbreviates: Aspergillus flavus, 3357, 0.025 h, 22.0° C. (RT), 90 seconds, PBS.
The mark [2] stands for this setting: Aspergillus flavus, 3357, 0.025 h, 57.5° C. mild heat, 90 seconds, PBS.
The mark [3] stands for this setting: 57.5° C. mild heat, 90 seconds, PBS.

This is an account of results in patent US11950596B2, “Methods of protecting seeds from oxidants and microorganisms” (The United States of America, as represented by the …, priority 2020, dated 2024).

Structures are written as SMILES. Where two headings read alike, the source gives them in different places. Marks after values point to notes of the source that are not given here.

Turning to `O=Cc1cccc(O)c1O` [2,3-Dihydroxybenzaldehyde], the MFC is > 700 µM under setting [1] and > 700 µM under setting [2].

Take `O=C(O)c1ccc(O)cc1O` [2,4-Dihydroxybenzoic acid]: the MFC under setting [1] is > 700 µM and the MFC under setting [2] is > 700 µM.

For `COc1ccc(C=O)c(O)c1` [2-Hydroxy-4-methoxybenzaldehyde], the MFC is, setting by setting: under setting [1], > 700 µM; under setting [2], > 700 µM.

In the case of `Cc1ccc(C=O)c(O)c1` [2-Hydroxy-4-methylbenzaldehyde], the MFC under setting [1] is > 700 µM and the MFC under setting [2] was > 700 µM.

Take `O=C(O)c1ccc(O)c(O)c1` [3,4-Dihydroxybenzoic acid]: the MFC runs as follows: under setting [3], >700 µM; under setting [1], > 700 µM.

Turning to `O=Cc1ccccc1` [Benzaldehyde], the MFC runs as follows: under setting [3], >700 µM; under setting [1], > 700 µM.

As to `O=C(O)c1ccccc1` [Benzoic acid], the MFC by setting is: under setting [3], >700 µM; under setting [1], > 700 µM.

On to `CCCCOC(=O)c1cc(O)c(O)c(O)c1` [Butyl gallate], for which the MFC is > 700 µM under setting [1] and > 700 µM under setting [2].

`Cc1ccc(C(C)C)cc1O` [Carvacrol]: the MFC runs as follows: under setting [3], >700 µM; under setting [1], > 700 µM.

On to `CC[C@H](C)C[C@H](C)CCCCCCCCC(=O)N[C@H]1C[C@@H](O)[C@@H](NCCN)NC(=O)[C@@H]2[C@@H](O)CCN2C(=O)[C@H]([C@H](O)CCN)NC(=O)[C@H]([C@H](O)[C@@H](O)c2ccc(O)cc2)NC(=O)[C@@H]2C[C@@H](O)CN2C(=O)[C@H]([C@@H](C)O)NC1=O` [Caspofungin], for which the “minimum fungicidal concentration (MFC; >99.999% fungal death)” value was >64 μg/mL; ppm (22.0° C. (RT), 90 seconds, PBS) and >64 μg/mL; ppm under setting [3].

Take `O=CC=Cc1ccccc1` [Cinnamaldehyde]: the MFC under setting [3] is reported as >700 µM and the MFC under setting [1] was > 700 µM.

As for `O=C(O)C=Cc1ccccc1` [Cinnamic acid], the MFC by setting is: under setting [1], > 700 µM; under setting [2], > 700 µM.

With `Cc1cc(C2CC2)nc(Nc2ccccc2)n1` [Cyprodinil], the “minimum fungicidal concentration (MFC; >99.999% fungal death)” value is recorded as >64 μg/mL; ppm (22.0° C. (RT), 90 seconds, PBS) and >64 μg/mL; ppm under setting [3].

In the case of `CCCCCCCCCCOC(=O)c1cc(O)c(O)c(O)c1` [Decyl gallate], the MFC reads like this: (22.0° C. (RT), 90 seconds, PBS) >700 µM; under setting [1], > 700 µM; under setting [2], 200 µM. Also, under setting [3], the “minimum fungicidal concentration (MFC; >99.999% fungal death)” value is 200* μM.

`CCOC(=O)c1cc(O)c(O)c(O)c1` [Ethyl gallate]: the MFC under setting [1] was > 700 µM and the MFC under setting [2] was > 700 µM.

Turning to `N#Cc1c[nH]cc1-c1cccc2c1OC(F)(F)O2` [Fludioxonil], the “minimum fungicidal concentration (MFC; >99.999% fungal death)” value is >64 μg/mL; ppm (22.0° C. (RT), 90 seconds, PBS) and >64 μg/mL; ppm under setting [3].

Turning to `O=C(O)c1cc(O)c(O)c(O)c1` [Gallate], the MFC by setting is: under setting [1], > 700 µM; under setting [2], > 700 µM.

As for `COc1ccccc1O` [Guaiacol], the MFC runs as follows: under setting [1], > 700 µM; under setting [2], > 700 µM.

On to `OO` [Hydrogen peroxide], for which the MFC under setting [1] was > 700 µM and the MFC under setting [2] was > 700 µM.

On to `CCC(C)n1ncn(-c2ccc(N3CCN(c4ccc(OCC5COC(Cn6cncn6)(c6ccc(Cl)cc6Cl)O5)cc4)CC3)cc2)c1=O` (stereo not shown) [Itraconazole], for which the “minimum fungicidal concentration (MFC; >99.999% fungal death)” value is, setting by setting: (22.0° C. (RT), 90 seconds, PBS) 64 μg/mL; ppm; under setting [3], >64 μg/mL; ppm.

Regarding `COC(=O)c1cc(O)c(O)c(O)c1` [Methyl gallate], the MFC under setting [1] was > 700 µM and the MFC under setting [2] is > 700 µM.

In the case of `CCCCCCCCCOC(=O)c1cc(O)c(O)c(O)c1` [Nonyl gallate], the MFC runs as follows: (22.0° C. (RT), 90 seconds, PBS) >700 µM; under setting [1], > 700 µM; under setting [2], 400 µM. Moreover, under setting [3], the “minimum fungicidal concentration (MFC; >99.999% fungal death)” value is recorded as 400* μM.

Take `CCCOC(=O)c1cc(O)c(O)c(O)c1` [Propyl gallate]: the MFC was > 700 µM under setting [1] and > 700 µM under setting [2].

`COC(=O)N(OC)c1ccccc1COc1ccn(-c2ccc(Cl)cc2)n1` [Pyraclostrobin]: the “minimum fungicidal concentration (MFC; >99.999% fungal death)” value (22.0° C. (RT), 90 seconds, PBS) is on record as >64 μg/mL; ppm and the “minimum fungicidal concentration (MFC; >99.999% fungal death)” value under setting [3] is given as >64 μg/mL; ppm.

On to `Cc1cc(C)nc(Nc2ccccc2)n1` [Pyrimethanil], for which the “minimum fungicidal concentration (MFC; >99.999% fungal death)” value is given as >64 μg/mL; ppm (22.0° C. (RT), 90 seconds, PBS) and >64 μg/mL; ppm under setting [3].

`O=Cc1ccccc1O` [Salicylaldehyde]: the MFC is >700 µM under setting [3] and > 700 µM under setting [1].

In the case of `O=C(O)c1ccccc1O` [Salicyllic acid], the MFC (Aspergillus flavus, 3357, 0.025 h) is > 700 µM.

With `CCCCCCCCCCCCOS(=O)(=O)[O-].[Na+]` [Sodium lauryl sulfate], the MFC under setting [1] was > 700 µM and the MFC under setting [2] is > 700 µM.

Take `Cc1ccc(C(C)C)c(O)c1` [Thymol]: the MFC is > 700 µM under setting [1] and > 700 µM under setting [2].

With `COc1cc(C(=O)O)ccc1O` [Vanillic acid], the MFC under setting [1] is > 700 µM and the MFC under setting [2] is > 700 µM.

Consider `COc1cc(C=O)ccc1O` [Vanillin], for which the MFC was > 700 µM under setting [1] and > 700 µM under setting [2].

Consider `COc1cc(CCC(C)=O)ccc1O` [Vanillylacetone], for which the MFC is > 700 µM under setting [1] and > 700 µM under setting [2].
